From US20210244720A1, “Therapeutic Tyrosine Kinase Inhibitors for Relapsing Multiple Sclerosis (RMS)” (Genzyme Corporation, priority 2020, published 2021)

Tested on: participants with relapsing multiple sclerosis (RMS)
Assay: Phase 2b study in RMS: safety and tolerability (adverse events, laboratory tests, ECG, vital signs)
Conditions: for proportion of participants with TEAEs: treatment period
[1] = 60 mg, 12 weeks treatment, n = 32
[2] = 60 mg, BTK inhibitor treatment period, safety population, N = 32
[3] = 60 mg, BTK inhibitor treatment period, safety population, N = 33
[4] = 12-week treatment period, 15 mg
[5] = 12-week treatment period, 30 mg
[6] = 12-week treatment period, 60 mg
[7] = All Dose Groups, 12 weeks treatment, N = 130
[8] = All Dose Groups, Weeks 1 to 12, N = 130
[9] = All, BTK inhibitor treatment period, safety population, N = 130

Structure (SMILES): C=CC(=O)N1CCC[C@@H](n2c(=O)n(-c3ccc(Oc4ccccc4)cc3)c3c(N)nccc32)C1 [the BTK inhibitor, (R)-1-(1-acryloylpiperidin-3-yl)-4-amino-3-(4-phenoxyphenyl)-1H-imidazo[4,5-c]pyridin-2(3H)-one]
- Nasopharyngitis, patients % [1]: (9%)
- Nasopharyngitis, patients n [1]: 3
- Oropharyngeal pain, patients % [1]: (3%)
- Oropharyngeal pain, patients n [1]: 1
- Peripheral edema, patients % [1]: (6%)
- Peripheral edema, patients n [1]: 2
- Respiratory tract infection, patients % [1]: (3%)
- Respiratory tract infection, patients n [1]: 1
- Upper respiratory tract infection, patients % [1]: (3%)
- Upper respiratory tract infection, patients n [1]: 1
- AESI, Alanice aminotransferase increased, n (%) [2]: 1 (3.1)
- AESI, Investigations, n (%) [2]: 1 (3.1)
- Any AESI, n (%) [2]: 1 (3.1)
- Participants with any TEAE, % [3]: (54.5) %
- Participants with any treatment-related TEAE, % [3]: (6.1) %
- treatment-emergent SAE (60 mg, Cohort 1, MS relapse): One
- AESI, Alanice aminotransferase increased, n (%) (60 mg, Weeks 1 to 4, N = 16): 0
- AESI, Investigations, n (%) (60 mg, Weeks 1 to 4, N = 16): 0
- Any AESI, n (%) (60 mg, Weeks 1 to 4, N = 16): 0
- Participants with any TEAE, % (60 mg, Weeks 1 to 4, N = 33): (42.4) %
- Participants with any treatment-related TEAE, % (60 mg, Weeks 1 to 4, N = 33): (9.1) %
- Any AE, % (60 mg, Weeks 1 to 4, n = 16): (31.3%)
- Any treatment-related AE, % (60 mg, Weeks 1 to 4, n = 16): (6.3%)
- Any AE, % (60 mg, Weeks 1 to 12, n = 32): (50.0) %
- Any treatment-related AE, % (60 mg, Weeks 1 to 12, n = 32): (21.9) %
- Serious AE, % (60 mg, Weeks 1 to 12, n = 32): (3.1) %
- correlation between dose administered and number of TEAEs (5-60 mg): no direct correlation
- TEAE alanine aminotransferase increased (12-week treatment period, 5 mg): 1
- TEAE alopecia (12-week treatment period, 5 mg): 1
- TEAE back pain (12-week treatment period, 5 mg): 1
- TEAE gastroenteritis (12-week treatment period, 5 mg): 1
- TEAE headache (12-week treatment period, 5 mg): 1
- TEAE nasopharyngitis (12-week treatment period, 5 mg): 1
- TEAE oedema peripheral (12-week treatment period, 5 mg): 2
- TEAE oropharyngeal pain (12-week treatment period, 5 mg): 1
- TEAE upper respiratory tract infection (12-week treatment period, 5 mg): 2
- TEAE alopecia [4]: 1
- TEAE back pain [4]: 1
- TEAE headache [4]: 3
- TEAE respiratory tract infection [4]: 1
- TEAE upper respiratory tract infection [4]: 2
- TEAE alanine aminotransferase increased [5]: 1
- TEAE back pain [5]: 2
- TEAE headache [5]: 1
- TEAE muscle spasticity [5]: 1
- TEAE nasopharyngitis [5]: 1
- TEAE oropharyngeal pain [5]: 1
- TEAE respiratory tract infection [5]: 1
- TEAE upper respiratory tract infection [5]: 1
- TEAE accidental overdose [6]: 3
- TEAE alanine aminotransferase increased [6]: 1
- TEAE alopecia [6]: 1
- TEAE gastroenteritis [6]: 2
- TEAE headache [6]: 4
- TEAE muscle spasticity [6]: 2
- TEAE nasopharyngitis [6]: 3
- TEAE oedema peripheral [6]: 2
- TEAE oropharyngeal pain [6]: 1
- TEAE respiratory tract infection [6]: 1
- TEAE upper respiratory tract infection [6]: 1
- tolerability (12 weeks of treatment): well-tolerated
- Accidental overdose, patients n (%) [7]: 3 (2%)
- Alanine aminotransferase increased, patients n (%) [7]: 3 (2%)
- Alopecia, patients n (%) [7]: 3 (2%)
- Back pain, patients n (%) [7]: 4 (3%)
- Gastroenteritis, patients n (%) [7]: 3 (2%)
- Headache, patients n (%) [7]: 9 (7%)
- Muscle spasticity, patients n (%) [7]: 3 (2%)
- Nasopharyngitis, patients n (%) [7]: 5 (4%)
- Oropharyngeal pain, patients n (%) [7]: 3 (2%)
- Peripheral edema, patients n (%) [7]: 4 (3%)
- Respiratory tract infection, patients n (%) [7]: 3 (2%)
- Upper respiratory tract infection, patients n (%) [7]: 6 (5%)
- Any AE, % [8]: (53.8) %
- Any treatment-related AE, % [8]: (13.1) %
- Serious AE, % [8]: (0.8) %
- AESI, Alanice aminotransferase increased, n (%) [9]: 2 (1.5)
- AESI, Investigations, n (%) [9]: 2 (1.5)
- Any AESI, n (%) [9]: 2 (1.5)
- Participants with any TEAE, % [9]: (53.1) %
- Participants with any severe TEAE, % [9]: (0.8) %
- Participants with any treatment emergent SAE, % [9]: (0.8) %
- Participants with any treatment-related TEAE, % [9]: (11.5) %
- Participants with treatment emergent SAE(s), Any class, n(%) [9]: 1 (0.8)
- Participants with treatment emergent SAE(s), Multiple sclerosis relapse, n(%) [9]: 1 (0.8)
- Participants with treatment emergent SAE(s), NERVOUS SYSTEM DISORDERS, n(%) [9]: 1 (0.8)
- Participants with any TEAE, % (All, Weeks 1 to 4, N = 130): (38.5) %
- Participants with any treatment-related TEAE, % (All, Weeks 1 to 4, N = 130): (9.2) %
- TEAE headache (Weeks 1 to 4, 5 mg): 3 cases
- TEAE nausea (Weeks 1 to 4, 5 mg): 2 cases
- proportion of participants who experienced TEAEs (Weeks 1 to 4, 5 mg): 31.3%
- TEAE headache (Weeks 1 to 4, 15 mg): 2 cases
- proportion of participants who experienced TEAEs (Weeks 1 to 4, 15 mg): 18.8%
- TEAE nausea (Weeks 1 to 4, 30 mg): 1 cases
- proportion of participants who experienced TEAEs (Weeks 1 to 4, 30 mg): 12.5%
- TEAE headache (Weeks 1 to 4, 60 mg): 1 cases
- proportion of participants who experienced TEAEs (Weeks 1 to 4, 60 mg): 31.3%
- TEAE upper respiratory tract infection (Weeks 1 to 4, each treatment group): 1 case
- TEAEs leading to permanent treatment discontinuation (all dose groups): no TEAEs leading to permanent treatment discontinuation
- intensity of TEAEs (all dose groups): mild or moderate intensity except for one severe TEAE
- PCSAs related to vital signs, labs and ECGs (multiple treatment groups): no dose relationship
- proportion of participants with TEAEs (5 mg): 57.6%
- proportion of participants with TEAEs (15 mg): 53.1%
- proportion of participants with TEAEs (30 mg): 54.5%
- proportion of participants with TEAEs (60 mg): 50.0%
- AESIs (alanine aminotransferase increased >3×ULN) (whole study): two
- deaths (whole study): No deaths
